Laboratory results taken from patent publication US12571805B2, “Methods and compositions for determining OxPL-associated diseases and disorders” (The Regents of the University of California, priority 2019, dated 2026).

Experiments:
Recombinant human MnSOD = molecular target: T1, Recombinant human MnSOD (Homo sapiens, UniProt P04179); experiment: In vitro modification of SOD and SOD activity; type: biochemical; conditions: POVPC molar ratio 1:40, 37° C. overnight, vs native MnSOD
T1 construct: purchased Abcam ab82656
T1 sequence (P04179 25-222): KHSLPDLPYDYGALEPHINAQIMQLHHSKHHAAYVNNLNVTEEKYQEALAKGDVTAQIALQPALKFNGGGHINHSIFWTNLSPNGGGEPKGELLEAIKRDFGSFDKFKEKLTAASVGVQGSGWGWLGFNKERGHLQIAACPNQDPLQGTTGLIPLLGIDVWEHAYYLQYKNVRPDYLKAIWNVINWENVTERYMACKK
Procedure: (§1) In vitro modification of SOD and SOD activity: Recombinant human MnSOD (Abcam, ab82656) was incubated with POVPC (Avanti Polar Lipids, 870606) (molar ration 1:40) or vehicle at 37° C. overnight. 300 μg/mL NaBH3CN was added to stabilize reversible OxPL adducts. Both native and POVPC modified MnSOD were dialyzed extensively against PBS. SOD activity of recombinant and modified MnSOD and liver and cell lysates was measured with Superoxide Dismutase Activity Assay Kit (Abcam) according to the manufacturer's instruction.

primary hepatocytes = experiment: OxPAPC treatment of primary hepatocytes: ROS, mitochondrial membrane potential, fatty acid oxidation, SOD activity; type: cell-based, mouse; conditions: 200 μM MnTBAP 1 hour, then OxPAPC 100 μg/mL 4 hours, Ldlr−/− hepatocytes
Procedure: Primary hepatocyte isolation: Primary hepatocytes were isolated from 6-week-old Ldlr^−/− and E06-scFvLdlr^−/− mice by a 2-step collagenase perfusion method. Briefly, HBSS (Life Technologies Co.; no Calcium and Magnesium, 0.5 mM EDTA, 25 mM HEPES) was used to perfuse liver at 10 mL/min speed until the liver turns into pale. Afterward, the liver was perfused with HBSS digestion buffer (Life Technologies Co.; 30 mg/100 mL collagenase I, 2 tablet/100 mL protease inhibitor) at 15 mL/min speed for 18 min. After sequential flows, cells were smashed through 100 μm strainer and washed with Williams' Medium E (Gibco, Grand Island, NY). Hepatocytes were isolated by density gradient centrifugation using percoll (Pharmacia, Sweden). Hepatocytes with 95% viability were cultured in Williams' Medium E supplemented with 5% serum, 0.5% penicillin/streptomycin and 15 mM HEPES at 37° C. in a 5% CO2 incubator overnight before use in experimentation.
ROS and Mitochondrial membrane potential measurement: Total ROS was determined with Total ROS detection Kit (ENZ-51011 Enzo Life Sciences Inc.) and mitochondrial ROS levels using MitoSOX (Invitrogen) following the manufacturers' instructions. Mitochondrial membrane potential (Ψm) was measured using TMRM as previously described (Shimada et al., 2012).
Ex vivo/in vitro fatty acid oxidation assay: Liver or adipose tissues were dissected, weighted, quickly rinsed in PBS. Minced tissues were placed in 96-well tissue culture plate. […] Fatty Acid Oxidation was measured with combination of Fatty Acid Oxidation Assay Kit (Abcam) and Oxygen Consumption Assay Kit (Abcam) according to the manufacturer's instruction. […] Fluorescence was measured at 37° C. for 30 min by Tecan Infinite M200 Pro.
as §1, with “300 μg/mL NaBH3CN was added to stabilize reversible OxPL adducts. Both native and POVPC modified MnSOD were dialyzed extensively against PBS.” left out

Compound | MnSOD activity of POVPC modified MnSOD (Recombinant human MnSOD) | OxPL-diminished mitochondrial membrane potential (primary hepatocytes) | mitochondrial ROS accumulation (primary hepatocytes) | total ROS accumulation (primary hepatocytes)
CCCCCCCCCCCCCCCC(=O)OC[C@H](COP(=O)([O-])OCC[N+](C)(C)C)OC(=O)CCCC=O [POVPC, 1-palmitoyl-2-(5′-oxo-valeroyl)-sn-glycero-3-phosphocholine] | significantly decreased activity | – | – | –
O=C(O)c1ccc(/C2=C3\C=CC(=N3)/C(c3ccc(C(=O)O)cc3)=c3/cc/c4[n]3[Mn]([Cl])[n]3c2ccc3/C(c2ccc(C(=O)O)cc2)=C2/C=CC(=N2)\C=4c2ccc(C(=O)O)cc2)cc1 [MnTBAP] | – | restored | abrogated | abrogated
